Results published in patent publication US11207299B2, “Biphenyl sulfonamide compounds for the treatment of type IV collagen diseases” (Travere Therapeutics, Inc., priority 2018, dated 2021).
“Also recorded” adds a separate entry of the source.

Columns and labels:
Type in all cases: in vivo, mouse
[1] = system: autosomal Alport mice (COL4A3^−/−); assay: Lifespan study in Alport mice
Excerpt: (§1) Vehicle or sparsentan was given daily by oral gavage to autosomal Alport mice (COL4A3^−/−) on the 129/Sv background (male and female) in five separate studies: a pilot study, an early intervention study (treated from 3-7 weeks of age), a late intervention study (treated from 5-7 weeks of age after the onset of glomerular (GM) changes), a lifespan study, and a hearing study (FIG. 1). The early intervention, late intervention, lifespan, and hearing studies also included mice treated with a comparator, losartan, which was given orally at 3-4 weeks of age in the early intervention study, in drinking water at 4-7 weeks of age in the early intervention study, and in drinking water at 5-7 weeks in the late intervention study.
In the lifespan study, Alport mice (n=10) were dosed using the same methodology as in the early intervention study, except that dosing was continued until mice had lost 10% of their peak body weight, after which they were euthanized.
For the pilot, early intervention, late intervention, and lifespan studies, spot urine was sampled pre-study and weekly during treatment and analyzed for protein (UP) and creatinine (C) to determine proteinuria (UP/C). At the end of each study the animals were euthanized, blood samples were taken, BUN was measured from serum, and kidneys were harvested for structural and immuno-fluorescent measurements. Glomerulosclerosis was assessed by immunofluorescence (IF) using an antibody to fibronectin (FN). Visual counting of the number of sclerotic glomeruli as a proportion of the total number of glomeruli per slide was used to calculate the percentage of sclerotic glomeruli. Sections were co-stained with an anti-CD45 antibody to indicate leucocyte infiltration. Tubulointerstitial fibrosis was determined by IF of kidney sections using an antibody to collagen 1 (COL1). Tubulointerstitial fibrosis (TIF) scoring was conducted by visual assessment of the COL1 positive area as a percentage of the total cortical area and was performed blinded. […]

[2] = system: autosomal Alport mice (COL4A3^−/−); assay: Late intervention study in Alport mice (treated from 5-7 weeks of age)
Excerpt: as §1
(§2) Efficacy renal endpoints included blood urea nitrogen (BUN), proteinuria (urine protein to creatinine ratio, or UP/C), glomerulosclerosis, tubulointerstitial fibrosis, leucocyte infiltration, and glomerular basement morphology (GBM) using transmission electron microscopy (TEM). Endpoints in the inner ear included auditory brain stem response (ABR) threshold as a measure of noise-induced hearing loss, strial capillary basement membrane thickness, and inner ear pathology by TEM.
In the late intervention study, wild-type or Alport mice (8 mice per group) were dosed for 14 days according to the same methods used in the early intervention study but beginning at 5 weeks of age, i.e., dosed with vehicle, 120 mg/kg of sparsentan, or 10 mg/kg losartan starting at 5 weeks of age for 14 days. In this study, untreated Alport mice at 5 weeks of age were also used as baseline controls.
(§3) For the pilot, early intervention, late intervention, and lifespan studies, spot urine was sampled pre-study and weekly during treatment and analyzed for protein (UP) and creatinine (C) to determine proteinuria (UP/C). At the end of each study the animals were euthanized, blood samples were taken, BUN was measured from serum, and kidneys were harvested for structural and immuno-fluorescent measurements. Glomerulosclerosis was assessed by immunofluorescence (IF) using an antibody to fibronectin (FN). Visual counting of the number of sclerotic glomeruli as a proportion of the total number of glomeruli per slide was used to calculate the percentage of sclerotic glomeruli. Sections were co-stained with an anti-CD45 antibody to indicate leucocyte infiltration. Tubulointerstitial fibrosis was determined by IF of kidney sections using an antibody to collagen 1 (COL1). Tubulointerstitial fibrosis (TIF) scoring was conducted by visual assessment of the COL1 positive area as a percentage of the total cortical area and was performed blinded. The fibrosis scoring (“Fibrosis Score”) was categorized according to visual judgment of percentage of total cortical area, as: 0=<5%, 1=5-10%, 2=10-25%, 3=25-50%, 4=50-75%, or 5=75-100%. Ultrastructural changes in GBM and podocyte morphology were observed using transmission electron microscopy (TEM).
For a baseline comparison for late intervention, glomerulosclerosis and fibrosis were determined in kidney samples taken from 5-week-old untreated Alport mice.

[3] = system: autosomal Alport mice (COL4A3^−/−); assay: Pilot study: dose-dependent effects of sparsentan in Alport mice treated from 3-7 weeks of age; settings: for SBP / UP/C / DBP / Sclerotic Glomeruli (%) / BUN / Fibrosis Score: mean ± SD; for Sclerotic Glomeruli (%): fibronectin staining; for Fibrosis Score: at 7 wk, COL1-positive cortical area scored 0=<5% to 5=75-100%
Excerpt: as §1, §2
(§4) In the pilot study, designed to determine an optimal efficacious dose of sparsentan, Alport mice (3-4 per group) were dosed with vehicle (0.5% methylcellulose 4000 cps/0.25% Tween® 80 in distilled water) or sparsentan at 60 mg/kg or 200 mg/kg from 3 to 7 weeks of age for 28 days. Although 200 mg/kg sparsentan was efficacious in the pilot study, BUN levels were higher than those of Alport mice dosed with 60 mg/kg sparsentan (Table 1; FIG. 2A; FIG. 2B). This observation led to the selection of a 120 mg/kg dose of sparsentan to take forward into the early intervention study. During the pilot study, blood pressure (BP) was measured weekly using the CODA2 tail cuff system. Stria from this pilot study were also examined by immunofluorescence using antibodies to laminin α2
as §3

[4] = system: laminin α2 in stria of Alport mice; assay: Immunofluorescence of laminin α2 in stria of Alport mice; settings: Alport mice, sparsentan 200 mg/kg from 3-7 weeks of age (pilot study)
Experimental: as §4, with “Stria from this pilot study were also examined by immunofluorescence using antibodies to laminin α2” left out
For the hearing study, wild-type or Alport mice were treated according to daily from 3-8.5 weeks of age by oral gavage with vehicle (0.5% methylcellulose 4000 cps/0.25% Tween® 80 in distilled water) or 120 mg/kg sparsentan or losartan at 20 mg/kg by oral gavage from 3-4 weeks of age (during weaning) and 10 mg/kg in drinking water from 4-7 weeks of age (n=5). The progression of Alport disease was assessed at 7 weeks of age by the amount of proteinuria (via urinalysis reagent strips—data not shown). […] Hearing ability and sensitivity to noise were assessed between 7 and 8 weeks of age by Auditory Brainstem Response (ABR), pre-noise exposure. […]

[5] = Alport mice late intervention, sparsentan 120 mg/kg, mean ± SD
[6] = Alport mice, sparsentan 60 mg/kg, at 5 wk of age
[7] = Alport mice, sparsentan 60 mg/kg, at 6 wk of age
[8] = Alport mice, sparsentan 60 mg/kg, at 7 wk of age
[9] = Alport mice, sparsentan 200 mg/kg, at 5 wk of age
[10] = Alport mice, sparsentan 200 mg/kg, at 6 wk of age
[11] = Alport mice, sparsentan 200 mg/kg, at 7 wk of age

CCCCC1=NC2(CCCC2)C(=O)N1Cc1ccc(-c2ccccc2S(=O)(=O)Nc2noc(C)c2C)c(COCC)c1 [sparsentan]
Lifespan compared to vehicle-treated Alport mice ([1]; dosing as in early intervention study, continued until 10% loss of peak body weight, P<0.05): significantly longer; also recorded: significantly greater | Median lifespan ([1]; sparsentan compared with losartan): the same as losartan | UP/C ([2]; Alport mice late intervention, sparsentan 120 mg/kg for 14 days from 5 wk of age, mean ± SD, n = 8): 16.8 ± 2.8 mg/mg | BUN [2, 5]: 16.2 ± 2.4 mg/dL | GS (% Sclerotic glomeruli) [2, 5]: 8.3 ± 9.2 % | TIF ([2]; Alport mice late intervention, sparsentan 120 mg/kg, tubulointerstitial fibrosis score, mean ± SD): 0.8 ± 0.7 | Nephroprotection in AP mice ([2]; late intervention, to a greater extent than in the losartan-treated group): significant nephroprotection | Development of fibrosis, CD45^+ leucocyte infiltration, and glomerulosclerosis ([2]; sparsentan 120 mg/kg or losartan 10 mg/kg, 5-7 weeks of age): prevented; also recorded: attenuated | UP/C, BUN, glomerulosclerosis, and fibrosis vs. vehicle-treated Alport mice ([2]; sparsentan 120 mg/kg, late intervention, P<0.05): significantly lower | BUN levels after 200 mg/kg compared to 60 mg/kg sparsentan ([3]; Alport mice, 7 weeks of age, 4 weeks of dosing): elevated | SBP ([3]; Alport mice, sparsentan 60 mg/kg oral daily from 3 wk, at 5 wk of age, n = 4): 114.0 ± 13.0 mmHg | UP/C ([3]; Alport mice, sparsentan 60 mg/kg, at 4 wk of age): 3.4 ± 2.6 mg/mg | DBP [3, 6]: 71.1 ± 10.7 mm/Hg | UP/C [3, 6]: 8.6 ± 2.4 mg/mg | DBP [3, 7]: 72.9 ± 9.6 mm/Hg | SBP [3, 7]: 106.2 ± 6.9 mmHg | UP/C [3, 7]: 1.5 ± 1.5 mg/mg | Sclerotic Glomeruli (%) [3, 8]: 3.5±1.6% | BUN [3, 8]: 17.1 ± 1.5 mg/dL | DBP [3, 8]: 78.1 ± 14.7 mm/Hg | SBP [3, 8]: 117.6 ± 4.6 mmHg | UP/C [3, 8]: 5.6 ± 3.0 mg/mg | Fibrosis Score ([3]; Alport mice, sparsentan 60 mg/kg): 0.0 ± 0.0 | SBP ([3]; Alport mice, sparsentan 200 mg/kg oral daily from 3 wk, at 5 wk of age, n = 3): 110.6 ± 21.8 mmHg | UP/C ([3]; Alport mice, sparsentan 200 mg/kg, at 4 wk of age): 2.1 ± 3.7 mg/mg | DBP [3, 9]: 99.7 ± 7.7 mm/Hg | UP/C [3, 9]: 3.9 ± 3.5 mg/mg | DBP [3, 10]: 74.6 ± 21.4 mm/Hg | SBP [3, 10]: 108.7 ± 26.4 mmHg | UP/C [3, 10]: 1.5 ± 2.7 mg/mg | Sclerotic Glomeruli (%) [3, 11]: 1.4±1.3% | BUN [3, 11]: 25.9 ± 7.7 mg/dL | DBP [3, 11]: 91.7 ± 20.0 mm/Hg | SBP [3, 11]: 122 ± 20.9 mmHg | UP/C [3, 11]: 0.8 ± 1.4 mg/mg | Fibrosis Score ([3]; Alport mice, sparsentan 200 mg/kg): 0.0 ± 0.0 | Prevention of UP/C, glomerulosclerosis, and fibrosis compared to vehicle-treated mice ([3]; sparsentan 60 and 200 mg/kg, 3-7 weeks of age): prevented an increase in glomerulosclerosis in a dose-dependent manner; also recorded: dose-dependent prevention | Systolic and diastolic blood pressure compared to vehicle-treated Alport mice ([3]; sparsentan 60 or 200 mg/kg, 6 weeks of age (3 weeks of dosing)): significantly lower | COL1 immunoreactivity ([3]; sparsentan-treated Alport mice, pilot study, kidney sections): absent | BP compared to vehicle-treated Alport mice ([3]; sparsentan, end of pilot study (7 weeks of age; 4 weeks of dosing)): no difference | Accumulation of laminin α2 in stria [4]: prevented
